Assay results from patent publication US6787572B2, “Use of ubiquinone Q10 for the local treatment and prevention of post-surgical ophthalmologic pathologies” (priority 1999, dated 2004).

Experiments:
RCE cells [1] = test: Counting of cumulative apoptotic deaths by videomicroscopy at time intervals; format: cell-based, rabbit; settings: Q10 10 μM in Lutrol F127; 193 nm excimer laser and 254 nm UV; 24-72 hours after radiation; FIG. 6
From the text: The videomicroscopy at time intervals is up to now one of the few techniques, if not the only one, enabling to have, apart from the cell death-type characterization, the exact quantification thereof too. In fact by continuously considering the cell population it is possible to calculate the number of cumulative deaths without losing any death event due to the disintegration of the cell body which typically occurs during apoptosis.
To perform the experiment RCE cells have been plated at the density of 5×10^5 cells/plate with 10-cm diameter and incubated overnight at 37° C., CO2 10%. Subsequently, the plates have been preincubated for 2 hours with Q10 10 μM dissolved in the Lutrol F127^MT solution or with Lutrol F127™ only. The culture medium has been then replaced by 8 ml of sterile PBS, additioned with Ca^++ and Mg^++ to avoid the cell detachment from the support, and the plates have undergone treatment with excimer laser and λ=254 UV radiation in a Stratalinker apparatus, model 1800 (Stratagene) with various doses. Subsequently the PBS has been replaced by fresh culture medium additioned with the above reagents. […]

[2] = system: RCE cells (Rabbit Corneal Epithelial Cells); test: Malondialdehyde assay (lipid peroxidation / free radical production) after radiation; format: cell-based; settings: 2 h preincubation
From the text: The malondialdehyde is a product of the lipid peroxidation which occurs following exposure to free radicals of polyinsaturated fat acids. The malondialdehyde production is then routinely interpreted as a production index of the radicals themselves by means of treatment with electromagnetic radiations or oxidant substances. The Q10, as antioxidant, decreases the malondialdehyde production by indicating an action thereof which inhibits the free radicals' formation. To perform the malondialdehyde assay, RCE cells (Rabbit Corneal Epithelial Cells which are rabbit corneal keratocytes immortalized with SV40) have been plated at the density of 5×10^5 cell/plate in 10 plates of Petri with 10-cm diameter and incubated overnight in 5% CO2 atmosphere, 37° C. Then, the plates have been preincubated for 2 hours with Q10 10 μM, Vit.E, Vit. […] At the moment of the test the cells have been detached with trypsin according to standard procedures and counted by means of cell-counting chamber. […]
At 300 μl of buffy coat of each sample, 300 μl of thiobarbituric acid (TBA) by 1% have been added. The mixtures have been incubated at 95° C. for 30 minutes, centrifugated for 20 minutes at 12,000 RPM and the optic absorption of the buffy coat resulting by spettrophotometric analysis at λ=532 nm has been assessed. […]

RCE cells [3] = test: ATP levels after excimer laser or 254 nm radiation (firefly luciferase kit); format: cell-based, rabbit; settings: Q10 10 μM in Lutrol F127; 2 h preincubation; 193 nm excimer laser (FIG. 2a) or 254 nm UV (FIG. 2b)
Procedure: In order to perform the ATP test, RCE cells have been placed at the density of 5×10^5 cells/plate in 10 plates of Petri with 10-cm diameter and incubated overnight in 5% CO2 atmosphere, 37° C. Subsequently the plates have been preincubated for 2 hours with Q10 at 10 μM dissolved in the Lutrol F127™ solution or with Lutrol F127™ only. The culture medium has been then replaced by 8 ml of sterile PBS, additioned with Ca^++ and Mg^++ to avoid the detach of the cells from the support and the plates have been submitted to treatment with excimer laser (λ=193 nm) as shown by FIG. 2a or with 254 nm ultraviolet laser, as shown in FIG. 2b. Subsequently the PBS has been replaced by fresh culture medium additioned with the above reagents and the plates have been incubated for further 2 hours. At the moment of the assay the cells have been detached with trypsin according to standard procedures and counted by means of cell-counting chamber. […] The ATP quantification in the extracts has been performed by the “ATP Determination Kit” (Molecular Probes, USA) kit, based upon the firefly lucipherase according to the supplier instructions. To detect fluorescence, an analyzer for liquid scintillation (Camberra Packard, USA) preset for the bioluminescence analysis has been utilized.

RCE cells [4] = test: Counting of vital cells by trypan blue exclusion test after radiation; format: cell-based, rabbit; settings: Q10 10 μM in Lutrol F127; excimer laser and 254 nm UV (15,000 μJ/cm^2); FIGS. 5a, 5b
Procedure: However, the fact that the Q10 has a general protection effect against death by radiation is an important data in preventing […] collateral effects. In order to perform the trypan blue test, RCE cells have been plated at a density of 5×10^5 cells/plates with 10-cm diameter incubated overnight at 37° C., […]. Subsequently, the plates have been preincubated for 2 hours with Q10 10 μM dissolved in the Lutrol F127^MT solution or with Lutrol F127™ only. The culture medium has been then replaced by 8 ml of sterile PBS, additioned with Ca^++ and Mg^++ to avoid the cell detachment from the support, and the plates have undergone treatment with excimer laser and λ=254 UV radiation in a Stratalinker apparatus, model 1800 (Stratagene). Subsequently the PBS has been replaced by fresh culture medium additioned with the above reagents. The plates have been incubated for the time shown in FIG. 6a and in FIG. 6b and subsequently detached by trypsin according to standard procedures and resuspended in PBS. To the cell suspension a trypan blue solution in PBS by 1% concentration has been added immediately before the counting performed by means of cell-counting chamber. The number of live cells is shown in the FIGS. 4, 5a and 5b in the non-treated sample percentage.

[5] = cited from earlier work

With COC1=C(OC)C(=O)C(C/C=C(\C)CC/C=C(\C)CC/C=C(\C)CC/C=C(\C)CC/C=C(\C)CC/C=C(\C)CC/C=C(\C)CC/C=C(\C)CC/C=C(\C)CCC=C(C)C)=C(C)C1=O [Q10, ubiquinone Q10] the cumulative apoptotic deaths (RCE cells [1]) was “protective effect on cells treated with 193 nm excimer laser and 254 nm UV radiation”, the “malondialdehyde levels following treatment with UV at 254 nm” value ([2]; Q10 10 μM in Lutrol F127, alone or in combination with Vit.E, Vit.C, 254 nm UV 15,000 μJ/cm^2, FIG. 1a) was “protective effect” and the “malondialdehyde production following treatment with 193 nm excimer laser” value ([2]; Q10 10 μM in Lutrol F127, various doses of 193 nm excimer laser, FIG. 1b) was “reductive effect against the malondialdehyde production”. For the same compound, the “ATP level following radiation” value (RCE cells [3]) was “protective effect opposing the decrease in the ATP level”, the “vitality of cells (number of live cells, trypan blue)” value (RCE cells [4]) was “protective effect on the vitality of cells” and the solubility in water [5] was “non-hydrosoluble substance”.
